For one molecule, ΔTm results are on record in article PMC5190074, “BET inhibition as a new strategy for the treatment of gastric cancer” (Oncotarget, 2016).

Broadly, the ΔTm is the shift of the melting midpoint relative to a reference.

Assay in all cases: biochemical
Holding throughout (parameters): thermal shift assay (real-time PCR machine), melting temperature shift of recombinant bromodomains at 2 uM protein

The target in one assay is T1, TAF1L(2) (Homo sapiens, UniProt Q8IZX4).
T1 construct: bromodomain 2
Here is the method:
(§1) The recombinant bromodomains at 2 μM were mixed with 10 μM inhibitors. The assays and data evaluation for melting temperatures were performed using a Real-Time PCR Mx3005p machine (Stratagene) and the protocols previously described. Experiments profiling the final compound (PNZ5) were performed in quadruplicates. […] Since its discovery in our own labs, similar inhibitors have also been disclosed by researchers at Boehringer Ingelheim [reference: patent, WO 2014/154760 [31]]. The inhibitor contains two possible acetyl-lysine mimetic moieties. In order to obtain molecular insights on the interaction of the developed inhibitor, the crystal structure of the first bromodomain of BRD4 in complex with PNZ5 was solved at 1.85 Å (Figure 2C and Supplementary Table 4, 5FBX.pdb). The inhibitor, coordinating residues and water molecules were well defined by the electron density. The dimethylisoxazole moiety mimicked the acetyl lysine side chain and formed two canonical hydrogen-bond interactions with Asn140 and water mediated hydrogen-bond with Tyr 97 (Figure 2C). The common network of waters within the binding site was also conserved in the BRD4(1)-PNZ5 complex. The compound was further stabilized by lipophilic interactions with residues forming the binding site Leu92, Leu94, Ile146. The [compound left out] substituent was well accommodated next to the WPF shelf, as well as the N1-methyl substituent that formed hydrophobic interactions with Trp81. The carbonyl on the isoindolinone established a water-mediated hydrogen bond with Lys91.

Another assay has as its target T2, FALZ (Homo sapiens, UniProt Q12830).
T2 construct: gene BPTF; bromodomain
Here is the method:
as §1

The target of another assay is T3, BRD4(2) (Homo sapiens, UniProt O60885).
T3 construct: bromodomain 2
Here is the method:
as §1

A further assay concerns the target T4, BRD3(1) (Homo sapiens, UniProt Q15059).
T4 construct: bromodomain 1
The procedure: as §1

A further assay addresses T5, PB1(2) (Homo sapiens, UniProt Q86U86).
T5 construct: gene PBRM1; bromodomain 2
The procedure: as §1

A further assay concerns the target T6, BRPF1B (Homo sapiens, UniProt P55201).
T6 construct: gene BRPF1; isoform B bromodomain
The procedure: as §1

A further assay concerns the target T7, BRD2(1) (Homo sapiens, UniProt P25440).
T7 construct: bromodomain 1
Here is the method: as §1

The target in the next assay is T8, ASH1L (Homo sapiens, UniProt Q9NR48).
T8 construct: bromodomain
The procedure: as §1

In a further assay the target is T9, PB1(1) (Homo sapiens, UniProt Q86U86).
T9 construct: gene PBRM1; bromodomain 1
Here is the method: as §1

Another assay deals with T10, BRD9 (Homo sapiens, UniProt Q9H8M2).
T10 construct: bromodomain
T10 sequence (Q9H8M2 whole entry): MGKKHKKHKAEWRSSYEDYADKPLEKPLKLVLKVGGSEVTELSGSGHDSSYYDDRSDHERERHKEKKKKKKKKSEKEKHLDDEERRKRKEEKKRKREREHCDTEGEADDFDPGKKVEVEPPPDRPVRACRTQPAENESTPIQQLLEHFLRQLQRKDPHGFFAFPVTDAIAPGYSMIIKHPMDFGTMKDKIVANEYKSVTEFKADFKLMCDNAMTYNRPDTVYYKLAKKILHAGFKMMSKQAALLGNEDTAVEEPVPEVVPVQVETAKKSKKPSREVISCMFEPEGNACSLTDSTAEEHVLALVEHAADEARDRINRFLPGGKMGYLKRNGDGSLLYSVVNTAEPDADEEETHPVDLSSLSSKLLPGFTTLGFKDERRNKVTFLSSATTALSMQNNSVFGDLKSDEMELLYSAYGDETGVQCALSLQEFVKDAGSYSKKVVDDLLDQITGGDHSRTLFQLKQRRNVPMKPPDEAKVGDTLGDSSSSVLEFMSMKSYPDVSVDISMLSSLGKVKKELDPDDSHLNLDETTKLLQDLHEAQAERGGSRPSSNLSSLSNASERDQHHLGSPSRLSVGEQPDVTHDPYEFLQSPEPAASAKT
Here is the method: as §1

A further assay concerns the target T11, BRWD3(2) (Homo sapiens, UniProt Q6RI45).
T11 construct: bromodomain 2
Here is the method:
as §1

A further assay addresses T12, BRDT(1) (Homo sapiens, UniProt Q58F21).
T12 construct: bromodomain 1
Here is the method:
as §1

Another assay addresses T13, BRD3(2) (Homo sapiens, UniProt Q15059).
T13 construct: bromodomain 2
Here is the method: as §1

The next assay addresses T14, BRD2(2) (Homo sapiens, UniProt P25440).
T14 construct: bromodomain 2
Here is the method:
as §1

For another assay, the target named is T15, TAF1(1) (Homo sapiens, UniProt P21675).
T15 construct: bromodomain 1
Here is the method:
as §1

In a further assay the target is T16, PCAF (Homo sapiens, UniProt Q92831).
T16 construct: gene KAT2B; bromodomain
T16 sequence (Q92831 whole entry): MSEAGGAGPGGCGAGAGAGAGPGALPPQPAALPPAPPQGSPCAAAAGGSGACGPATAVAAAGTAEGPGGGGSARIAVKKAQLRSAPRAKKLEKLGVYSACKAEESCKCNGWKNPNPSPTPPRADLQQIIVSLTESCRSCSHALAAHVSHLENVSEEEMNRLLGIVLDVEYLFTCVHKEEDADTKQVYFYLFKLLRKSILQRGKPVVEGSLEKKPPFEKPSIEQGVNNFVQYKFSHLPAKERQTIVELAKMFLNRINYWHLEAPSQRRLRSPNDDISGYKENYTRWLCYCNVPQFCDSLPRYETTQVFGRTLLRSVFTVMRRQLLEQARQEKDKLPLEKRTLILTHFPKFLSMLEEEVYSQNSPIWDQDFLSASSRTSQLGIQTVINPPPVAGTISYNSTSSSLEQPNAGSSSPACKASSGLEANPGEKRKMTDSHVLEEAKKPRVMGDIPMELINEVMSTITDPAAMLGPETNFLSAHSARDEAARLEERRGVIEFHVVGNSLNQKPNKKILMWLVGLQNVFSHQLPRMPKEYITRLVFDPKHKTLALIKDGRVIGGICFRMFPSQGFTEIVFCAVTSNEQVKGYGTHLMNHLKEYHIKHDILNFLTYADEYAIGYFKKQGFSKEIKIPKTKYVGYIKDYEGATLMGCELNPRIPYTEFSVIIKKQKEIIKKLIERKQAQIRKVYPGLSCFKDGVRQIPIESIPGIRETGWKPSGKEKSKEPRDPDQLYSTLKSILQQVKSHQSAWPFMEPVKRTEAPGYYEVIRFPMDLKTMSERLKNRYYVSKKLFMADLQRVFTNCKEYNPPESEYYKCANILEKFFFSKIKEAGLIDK
Here is the method: as §1

The target of a further assay is T17, CREBBP (Homo sapiens, UniProt Q92793).
T17 construct: bromodomain
Here is the method: as §1

For assay [1], the target named is T18, BRD4(1), first bromodomain of BRD4 (Homo sapiens, UniProt O60885).
T18 construct: first bromodomain; BRD4_HUMAN O60884-1 fragment 44-168 (crystallography)
Here is the method: as §1

The target in a further assay is T19, BAZ2B (Homo sapiens, UniProt Q9UIF8).
T19 construct: bromodomain
T19 sequence (Q9UIF8 whole entry): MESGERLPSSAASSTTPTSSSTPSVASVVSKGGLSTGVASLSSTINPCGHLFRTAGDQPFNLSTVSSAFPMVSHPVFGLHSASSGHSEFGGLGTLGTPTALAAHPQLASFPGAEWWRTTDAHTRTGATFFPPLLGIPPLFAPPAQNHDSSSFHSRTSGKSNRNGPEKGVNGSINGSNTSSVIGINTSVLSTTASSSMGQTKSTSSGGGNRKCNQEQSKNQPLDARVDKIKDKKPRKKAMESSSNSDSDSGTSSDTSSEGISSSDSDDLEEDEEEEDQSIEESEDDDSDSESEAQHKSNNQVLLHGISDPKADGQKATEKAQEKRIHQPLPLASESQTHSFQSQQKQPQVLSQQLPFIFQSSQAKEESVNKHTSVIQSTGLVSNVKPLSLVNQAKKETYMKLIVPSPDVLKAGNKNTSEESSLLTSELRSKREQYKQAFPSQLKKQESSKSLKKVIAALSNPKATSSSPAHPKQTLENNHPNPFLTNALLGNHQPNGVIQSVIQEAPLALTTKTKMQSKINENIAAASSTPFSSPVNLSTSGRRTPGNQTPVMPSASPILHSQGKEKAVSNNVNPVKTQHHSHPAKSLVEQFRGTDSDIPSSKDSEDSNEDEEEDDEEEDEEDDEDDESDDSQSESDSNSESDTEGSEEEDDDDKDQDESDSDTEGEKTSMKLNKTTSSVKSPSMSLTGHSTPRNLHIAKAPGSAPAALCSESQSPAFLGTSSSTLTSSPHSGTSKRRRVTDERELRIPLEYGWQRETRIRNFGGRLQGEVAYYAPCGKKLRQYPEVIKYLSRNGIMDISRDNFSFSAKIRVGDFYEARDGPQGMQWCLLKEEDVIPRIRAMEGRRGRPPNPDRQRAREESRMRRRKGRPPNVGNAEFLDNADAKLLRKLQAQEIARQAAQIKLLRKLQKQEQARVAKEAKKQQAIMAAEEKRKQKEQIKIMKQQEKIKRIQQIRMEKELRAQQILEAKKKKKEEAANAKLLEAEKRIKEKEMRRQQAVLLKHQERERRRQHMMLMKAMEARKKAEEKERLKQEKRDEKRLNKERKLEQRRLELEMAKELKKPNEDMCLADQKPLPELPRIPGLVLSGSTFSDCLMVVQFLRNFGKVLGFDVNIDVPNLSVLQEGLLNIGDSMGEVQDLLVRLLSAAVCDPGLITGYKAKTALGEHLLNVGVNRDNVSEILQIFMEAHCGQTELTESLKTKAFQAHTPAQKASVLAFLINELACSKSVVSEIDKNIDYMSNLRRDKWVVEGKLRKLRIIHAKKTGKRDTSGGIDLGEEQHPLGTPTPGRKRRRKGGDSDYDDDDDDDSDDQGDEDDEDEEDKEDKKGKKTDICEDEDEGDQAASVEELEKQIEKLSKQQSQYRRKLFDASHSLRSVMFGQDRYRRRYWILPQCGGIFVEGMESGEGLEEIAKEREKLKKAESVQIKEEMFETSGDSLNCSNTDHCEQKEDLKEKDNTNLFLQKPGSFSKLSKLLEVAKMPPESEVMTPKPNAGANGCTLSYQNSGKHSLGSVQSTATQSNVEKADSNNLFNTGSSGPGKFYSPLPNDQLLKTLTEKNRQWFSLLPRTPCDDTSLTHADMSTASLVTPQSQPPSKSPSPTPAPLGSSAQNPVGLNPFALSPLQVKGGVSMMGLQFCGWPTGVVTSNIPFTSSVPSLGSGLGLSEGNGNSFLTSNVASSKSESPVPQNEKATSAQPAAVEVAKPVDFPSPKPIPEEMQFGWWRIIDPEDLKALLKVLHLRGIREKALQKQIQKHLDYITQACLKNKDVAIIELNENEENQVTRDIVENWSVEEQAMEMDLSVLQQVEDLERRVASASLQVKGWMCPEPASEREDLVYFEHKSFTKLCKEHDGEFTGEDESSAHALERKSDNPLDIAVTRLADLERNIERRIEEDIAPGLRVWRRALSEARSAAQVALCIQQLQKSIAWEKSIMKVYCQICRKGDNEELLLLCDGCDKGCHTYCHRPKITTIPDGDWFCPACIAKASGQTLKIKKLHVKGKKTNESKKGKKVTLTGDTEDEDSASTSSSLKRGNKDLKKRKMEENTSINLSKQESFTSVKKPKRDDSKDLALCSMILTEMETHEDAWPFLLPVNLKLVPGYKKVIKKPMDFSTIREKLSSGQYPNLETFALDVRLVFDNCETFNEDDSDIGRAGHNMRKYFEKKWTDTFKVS
Here is the method: as §1

The target of another assay is T20, SP140 (Homo sapiens, UniProt Q13342).
T20 construct: bromodomain
T20 sequence (Q13342 whole entry): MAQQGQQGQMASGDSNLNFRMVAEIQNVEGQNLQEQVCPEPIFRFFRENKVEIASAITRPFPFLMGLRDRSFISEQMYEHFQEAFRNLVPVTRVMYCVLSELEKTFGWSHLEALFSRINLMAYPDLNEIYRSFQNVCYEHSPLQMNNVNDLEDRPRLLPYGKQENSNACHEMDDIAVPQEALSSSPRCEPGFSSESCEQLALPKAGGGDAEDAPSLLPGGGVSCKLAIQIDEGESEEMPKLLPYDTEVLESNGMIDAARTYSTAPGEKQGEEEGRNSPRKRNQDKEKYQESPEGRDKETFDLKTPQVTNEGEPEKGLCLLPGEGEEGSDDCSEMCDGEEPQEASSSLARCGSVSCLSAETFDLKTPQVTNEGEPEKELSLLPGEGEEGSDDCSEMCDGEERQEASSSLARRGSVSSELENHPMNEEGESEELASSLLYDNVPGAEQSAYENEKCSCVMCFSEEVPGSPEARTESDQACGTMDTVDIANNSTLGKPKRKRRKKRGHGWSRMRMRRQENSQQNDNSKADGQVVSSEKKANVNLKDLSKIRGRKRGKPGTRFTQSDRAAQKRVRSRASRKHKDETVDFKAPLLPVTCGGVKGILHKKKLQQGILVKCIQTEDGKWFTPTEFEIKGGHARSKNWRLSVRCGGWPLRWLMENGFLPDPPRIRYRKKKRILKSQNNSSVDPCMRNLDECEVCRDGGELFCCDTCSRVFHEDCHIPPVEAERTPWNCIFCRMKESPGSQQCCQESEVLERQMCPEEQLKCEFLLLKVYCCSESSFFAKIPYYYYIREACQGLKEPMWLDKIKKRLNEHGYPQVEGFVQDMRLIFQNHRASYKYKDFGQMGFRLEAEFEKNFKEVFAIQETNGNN
The procedure: as §1

For the molecule `Cc1noc(C)c1-c1ccc2c(c1)[C@H](c1ccccc1)N(C)C2=O` [PNZ5], the ΔTm at 10 µM on TAF1L(2) came to 0.51 °C; on FALZ, 0.22 °C; at BRD4(2), 7.04 °C; at BRD3(1), 9.79 °C; at PB1(2), 0.27 °C; on BRPF1B it was 0.89 °C. For the same molecule, the ΔTm at 10 µM on BRD2(1) was determined as 7.94 °C; on ASH1L, 0.41 °C; at PB1(1), 0.79 °C; at BRD9, 1.85 °C; on BRWD3(2), 0.74 °C; on BRDT(1), 6.19 °C. The ΔTm at 10 µM amounted to 9.54 °C at BRD3(2); 8.13 °C at BRD2(2); 0.09 °C on TAF1(1); 0.45 °C on PCAF; 2.37 °C at CREBBP; 10.1 °C in assay [1]. Moreover, the ΔTm at 10 µM on BAZ2B turned out to be 0.38 °C; at SP140 it was 0.87 °C.
